Laboratory results: patent publication US8357694B2, “Substituted 5,6-dihydro-6-phenylbenzo[F]isoquinolin-2-amine compounds” (ArQule, Inc., priority 2008, dated 2013)
Counter-ions that a name gives are not always drawn.

Legend:
FGFR2 kinase = target: T1, FGFR2 kinase (Homo sapiens, UniProt P21802, N549H); assay: fluorescent ELISA FGFR2 kinase assay (biochemical); settings: FGFR2 (N549H); read-out: Biochemical data (IC50-μM) FGFR2 (N549H)
T1 construct: purchased Millipore 14-742
Procedure: The enzymatic assays described herein are conducted according to the following procedures from commercially available reagents. In one, non limiting, example, a fluorescent ELISA assay is used to identify and characterize inhibitors of FGFR2 kinase as described herein. This heterogeneous assay utilizes a biotinylated peptide with a tyrosine motif as a substrate and an anti-phospho-tyrosine antibody to measure phosphorylation of the substrate. […] The reaction is incubated for 60 minutes. As the reaction proceeds, FGFR2 phosphorylates tyrosines in the peptide. […] Peptides are captured for 30 minutes at room temperature, the phosphorylation of peptides continues during this phase. The reaction is stopped by washing the streptavidin-coated plate 6 times with TBST. […] Unbound anti-phospho-tyrosine antibody is removed by washing the streptavidin-coated plate 6 times with TBST. […] Unbound secondary antibody is removed by washing the streptavidin-coated plate 6 times with TBST.

SNU-16 = assay: MTS assay, SNU-16; format: cell-based; settings: Homo sapiens, SNU-16, SNU-16; read-out: MTS cell kill data (IC50-μM) SNU-16
Procedure: Cells were maintained at 37° C., 5% CO2 in DMEM media supplemented with 1% fetal bovine serum, penicillin/streptomycin and fungizone (Invitrogen). Cells were seeded into 96-well tissue culture plates at 3000 per well and cultured at 37° C. for 18 hours. Test compounds were dissolved and diluted to 300× in DMSO then diluted 1:40 in DMEM.

T1 sequence (P21802 456-770 N549H limits assumed): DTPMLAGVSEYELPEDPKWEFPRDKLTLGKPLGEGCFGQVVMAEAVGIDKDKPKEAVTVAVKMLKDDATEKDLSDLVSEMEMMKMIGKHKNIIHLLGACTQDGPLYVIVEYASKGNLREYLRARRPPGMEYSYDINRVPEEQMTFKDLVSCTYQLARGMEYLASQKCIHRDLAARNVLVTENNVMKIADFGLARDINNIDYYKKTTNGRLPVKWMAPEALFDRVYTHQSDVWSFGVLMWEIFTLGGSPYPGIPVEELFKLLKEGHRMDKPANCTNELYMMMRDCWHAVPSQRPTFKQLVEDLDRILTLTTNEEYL

| Structure (SMILES) | IC50 (FGFR2 kinase) [µM] | melting point [°C] | IC50 (SNU-16) [µM] |
| --- | --- | --- | --- |
| Brc1cccc([C@@H]2Cc3cnc(Nc4ccc(CCN5CCCCC5)cc4)nc3-c3ccccc32)c1 [Example 78, (S)-6-(3-bromophenyl)-N-(4-(2-(piperidin-1-yl)ethyl)phenyl)-5,6-dihydrobenzo[h]quinazolin-2-amine hydrochloride] |  |  | 4.85 |
| CN(CCc1ccc(Nc2ncc3c(n2)-c2ccccc2[C@H](c2ccc(F)c(F)c2)C3)cc1)C1CCCCC1 [Example 85, (S)-N-(4-(2-(cyclohexyl(methyl)amino)ethyl)phenyl)-6-(3,4-difluorophenyl)-5,6-dihydrobenzo[h]quinazolin-2-amine hydrochloride] |  |  | 3.88 |
| CN(C)CCc1ccc(Nc2ncc3c(n2)-c2ccccc2[C@H](c2ccc(F)c(F)c2)C3)cc1 [Example 87, (S)-6-(3,4-difluorophenyl)-N-(4-(2-(dimethylamino)ethyl)phenyl)-5,6-dihydrobenzo[h]quinazolin-2-amine hydrochloride] |  |  | 7.78 |
| CN1CCN(CCc2ccc(Nc3ncc4c(n3)-c3ccccc3[C@H](c3ccc(F)c(F)c3)C4)cc2)CC1 [Example 88, (S)-6-(3,4-difluorophenyl)-N-(4-(2-(4-methylpiperazin-1-yl)ethyl)phenyl)-5,6-dihydrobenzo[h]quinazolin-2-amine hydrochloride] |  |  | 9.86 |
| COCCN1CCN(CCc2ccc(Nc3ncc4c(n3)-c3ccccc3[C@@H](c3ccc(F)c(F)c3)C4)cc2)CC1 [Example 90, (R)-6-(3,4-difluorophenyl)-N-(4-(2-(4-(2-methoxyethyl)piperazin-1-yl)ethyl)phenyl)-5,6-dihydrobenzo[h]quinazolin-2-amine hydrochloride] |  |  | 14.6 |
| Fc1ccc([C@H]2Cc3cnc(Nc4ccc(CCN5CCCCC5)cc4)nc3-c3ccccc32)cc1F [Example 91, (R)-6-(3,4-difluorophenyl)-N-(4-(2-(piperidin-1-yl)ethyl)phenyl)-5,6-dihydrobenzo[h]quinazolin-2-amine hydrochloride] |  |  | 6.32 |
| COCCN1CCN(CCc2ccc(Nc3ncc4c(n3)-c3ccccc3[C@H](c3ccc(Br)cc3)C4)cc2)CC1 [Example 97, (S)-6-(4-bromophenyl)-N-(4-(2-(4-(2-methoxyethyl)piperazin-1-yl)ethyl)phenyl)-5,6-dihydrobenzo[h]quinazolin-2-amine hydrochloride salt] |  |  | 4.2 |
| CCCCN(C)CCc1ccc(Nc2ncc3c(n2)-c2ccccc2[C@H](c2ccc(F)cc2)C3)cc1 [Example 99, (S)-N-(4-(2-(butyl(methyl)amino)ethyl)phenyl)-6-(4-fluorophenyl)-5,6-dihydrobenzo[h]quinazolin-2-amine] |  |  | 6.16 |
| CN(CCc1ccc(Nc2ncc3c(n2)-c2ccccc2[C@H](c2ccc(Cl)c(Cl)c2)C3)cc1)C1CCCCC1 [Example 106, (S)-N-(4-(2-(cyclohexyl(methyl)amino)ethyl)phenyl)-6-(3,4-dichlorophenyl)-5,6-dihydrobenzo[h]quinazolin-2-amine hydrochloride salt] |  |  | 3.05 |
| N#Cc1c(N)ncc2c1-c1ccccc1C(c1ccc(Cl)cc1Cl)C2 (centres unmarked) [Example 151, 2-amino-6-(2,4-dichlorophenyl)-5,6-dihydrobenzo[f]isoquinoline-1-carbonitrile] |  | 282 to 284 |  |
| Nc1cc2c(cn1)CC(c1ccc(Cl)cc1Cl)c1ccccc1-2 (centres unmarked) [Example 156, 6-(2,4-dichlorophenyl)-5,6-dihydrobenzo[f]isoquinolin-2-amine] |  | 189 to 193 |  |
| Clc1ccc([C@@H]2Cc3cnc(Nc4cccc(CCN5CCCCC5)c4)nc3-c3ccccc32)cc1Cl [Example 167, (S)-6-(3,4-dichlorophenyl)-N-(3-(2-(piperidin-1-yl)ethyl)phenyl)-5,6-dihydrobenzo[h]quinazolin-2-amine hydrochloride] |  |  | 4.21 |
| CCCCN(C)CCc1cc(Nc2ncc3c(n2)-c2ccccc2[C@H](c2ccccc2F)C3)ccc1F [Example 172, (R)-N-(3-(2-(butyl(methyl)amino)ethyl)-4-fluorophenyl)-6-(2-fluorophenyl)-5,6-dihydrobenzo[h]quinazolin-2-amine hydrochloride salt] | 0.0922 |  |  |
| OCCc1ccccc1Nc1ncc2c(n1)-c1ccccc1[C@H](c1ccccc1F)C2 [Example 177, (R)-2-(2-(6-(2-fluorophenyl)-5,6-dihydrobenzo[h]quinazolin-2-ylamino)phenyl)ethanol] |  | 162 to 163 |  |
| N#Cc1c(NCCCN2CCCC2)ncc2c1-c1ccccc1C(c1ccc(Cl)c(Cl)c1)C2 (centres unmarked) [Example 180, 6-(3,4-dichlorophenyl)-2-(3-(pyrrolidin-1-yl)propylamino)-5,6-dihydrobenzo[f]isoquinoline-1-carbonitrile] |  | 104 to 110 |  |

More lines, main results first:

| IC50 (FGFR2 kinase) [µM] | melting point [°C] | Structure (SMILES) | IC50 (SNU-16) [µM] |
| --- | --- | --- | --- |
| 0.118 |  | COCCN1CCN(CCc2ccc(Nc3ncc4c(n3)-c3ccccc3[C@H](c3cccc(Br)c3)C4)cc2)CC1 [Example 77, (S)-6-(3-bromophenyl)-N-(4-(2-(4-(2-methoxyethyl)piperazin-1-yl)ethyl)phenyl)-5,6-dihydrobenzo[h]quinazolin-2-amine hydrochloride] | 4.47 |
| 0.267 |  | COCCNCCc1ccc(Nc2ncc3c(n2)-c2ccccc2[C@H](c2ccc(F)c(F)c2)C3)cc1 [Example 86, (S)-6-(3,4-difluorophenyl)-N-(4-(2-(2-methoxyethylamino)ethyl)phenyl)-5,6-dihydrobenzo[h]quinazolin-2-amine hydrochloride] | 5.13 |
| 0.296 |  | CN(CCc1ccccc1)CCc1ccc(Nc2ncc3c(n2)-c2ccccc2[C@H](c2ccccc2F)C3)cc1 [Example 93, (R)-6-(2-fluorophenyl)-N-(4-(2-(methyl(phenethyl)amino)ethyl)phenyl)-5,6-dihydrobenzo[h]quinazolin-2-amine hydrochloride salt] | 3.25 |
| 0.00999 |  | COCCNCCc1ccc(Nc2ncc3c(n2)-c2ccccc2[C@H](c2ccccc2F)C3)cc1 [Example 94, (R)-6-(2-fluorophenyl)-N-(4-(2-(2-methoxyethylamino)ethyl)phenyl)-5,6-dihydrobenzo[h]quinazolin-2-amine hydrochloride salt] | 0.895 |
| 0.24 |  | CN(CCc1ccc(Nc2ncc3c(n2)-c2ccccc2[C@H](c2ccccc2F)C3)cc1)C1CCCCC1 [Example 95, (R)-N-(4-(2-(cyclohexyl(methyl)amino)ethyl)phenyl)-6-(2-fluorophenyl)-5,6-dihydrobenzo[h]quinazolin-2-amine] | 1.13 |
|  | 195 to 198 | COCCN1CCN(CCc2ccc(Nc3ncc4c(n3)-c3ccccc3[C@H](c3ccc(F)cc3)C4)cc2)CC1 [Example 100, (S)-6-(4-fluorophenyl)-N-(4-(2-(4-(2-methoxyethyl)piperazin-1-yl)ethyl)phenyl)-5,6-dihydrobenzo[h]quinazolin-2-amine] | 7.36 |
| 0.26 |  | CN(CCc1ccc(Nc2ncc3c(n2)-c2ccccc2[C@H](c2ccc(F)cc2)C3)cc1)C1CCCCC1 [Example 102, (S)-N-(4-(2-(cyclohexyl(methyl)amino)ethyl)phenyl)-6-(4-fluorophenyl)-5,6-dihydrobenzo[h]quinazolin-2-amine] | 3.22 |
|  | 160 to 162 | CN(CCc1ccc(Nc2ncc3c(n2)-c2ccccc2[C@H](c2ccc(F)cc2)C3)cc1)C1CCCCC1 [Example 102, (S)—N-(4-(2-(cyclohexyl(methyl)amino)ethyl)phenyl)-6-(4-fluorophenyl)-5,6-dihydrobenzo[h]quinazolin-2-amine] |  |
| 0.423 |  | CCCCN(C)CCc1ccc(Nc2ncc3c(n2)-c2ccccc2[C@@H](c2ccc(Br)cc2)C3)cc1 [Example 107, (R)-6-(4-bromophenyl)-N-(4-(2-(butyl(methyl)amino)ethyl)phenyl)-5,6-dihydrobenzo[h]quinazolin-2-amine hydrochloride salt] |  |
| 0.354 |  | Brc1ccc([C@H]2Cc3cnc(Nc4ccc(CCN5CCCCC5)cc4)nc3-c3ccccc32)cc1 [Example 108, (R)-6-(4-bromophenyl)-N-(4-(2-(piperidin-1-yl)ethyl)phenyl)-5,6-dihydrobenzo[h]quinazolin-2-amine hydrochloride salt] |  |
|  | 140 to 141 | OCCc1cc(Nc2ncc3c(n2)-c2ccccc2[C@H](c2ccccc2F)C3)ccc1F [Example 169, (R)-2-(2-fluoro-5-(6-(2-fluorophenyl)-5,6-dihydrobenzo[h]quinazolin-2-ylamino)phenyl)ethano] |  |
| 0.327 |  | OCCc1cc(Nc2ncc3c(n2)-c2ccccc2[C@H](c2ccccc2F)C3)ccc1F [Example 169] |  |
|  | 99 to 100 | CS(=O)(=O)OCCc1cc(Nc2ncc3c(n2)-c2ccccc2[C@H](c2ccccc2F)C3)ccc1F [Example 170, (R)-2-fluoro-5-(6-(2-fluorophenyl)-5,6-dihydrobenzo[h]quinazolin-2-ylamino)phenethyl methanesulfonate] |  |
| 0.0355 |  | CCCCNCCc1cc(Nc2ncc3c(n2)-c2ccccc2[C@H](c2ccccc2F)C3)ccc1F [Example 171, (R)-N-(3-(2-(butylamino)ethyl)-4-fluorophenyl)-6-(2-fluorophenyl)-5,6-dihydrobenzo[h]quinazolin-2-amine hydrochloride salt] |  |
| 0.109 | 158 to 159 | OCc1cccc(Nc2ncc3c(n2)-c2ccccc2[C@H](c2ccccc2F)C3)c1 [Example 176, (R)-(3-(6-(2-fluorophenyl)-5,6-dihydrobenzo[h]quinazolin-2-ylamino)phenyl)methanol] |  |
